Data from patent publication US11708344B2, “Flavone derivatives for the treatment and prophylaxis of hepatitis B virus disease” (Hoffmann-La Roche Inc., priority 2018, dated 2023).

Experiments:
[1] = Human microsome stability assay; type: in vitro ADME; settings: human liver microsomes, 1 μM test compound, 0.5 mg/mL microsomal protein, 37° C., pH 7.4, 0-30 minutes
Experimental: The human microsomal stability assay is used for early assessment of metabolic stability of a test compound in human liver microsomes.
Human liver microsomes (Cat. NO.: 452117, Corning, USA; Cat. NO.: H2610, Xenotech, USA) were preincubated with test compound for 10 minutes at 37° C. in 100 mM potassium phosphate buffer, pH 7.4. The reactions were initiated by adding NADPH regenerating system. The final incubation mixtures contained 1 μM test compound, 0.5 mg/mL liver microsomal protein, 1 mM MgCl2, 1 mM NADP, 1 unit/mL isocitric dehydrogenase and 6 mM isocitric acid in 100 mM potassium phosphate buffer, pH 7.4. After incubation times of 0, 3, 6, 9, 15 and 30 minutes at 37° C., 300 μL of cold ACN (including internal standard) was added to 100 μL incubation mixture to terminate the reaction. Following precipitation and centrifugation, the amount of compound remaining in the samples was determined by LC-MS/MS. Controls of no NADPH regenerating system at zero and 30 minutes were also prepared and analyzed.

[2] = system: HBeAg (surrogate marker for cccDNA) in HepDES19 cells; experiment: Engineered HepDES19 primary screen assay (HBeAg ELISA); type: cell-based, HBV; settings: Hepatitis B virus, HepDES19, 120 h, read-out: IC50 (HBeAg level, HepDES19 primary screen assay), HepDES19 cells, 5 days compound incubation, HBeAg ELISA
How it was run: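 IC50 values come from 4-parameter logistic fits of HBeAg ELISA signal, the cccDNA surrogate, with CCK-8 run in parallel for viability. Compounds at half-log dilutions with 1% DMSO were applied for 5 days at 37 °C to HepDES19 cells previously cultured 8 days without Tet.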

SMILES | Clearance of Human microsome [1] | IC50 [2]
N[C@@H](COc1cc(C(F)(F)F)ccc1-c1cc(=O)c2cccc(Cl)c2o1)C(=O)O [Example A095, (2S)-2-amino-3-[2-(8-chloro-4-oxo-chromen-2-yl)-5-(trifluoromethyl)phenoxy]propanoic acid] | 9.59 mL/min/kg | 3.29 µM
Cc1cc(Br)c(OC2CC(C(=O)O)C2)c(-c2cc(=O)c3cccc(Cl)c3o2)c1 (centres unmarked) [Example B009, 3-[2-bromo-6-(8-chloro-4-oxo-chromen-2-yl)-4-methyl-phenoxy]cyclobutanecarboxylic acid] | 6.19 mL/min/kg | 5.98 µM
Cc1ccc(O[C@H]2C[C@@H](C(=O)O)C2)c(-c2cc(=O)c3cccc(Cl)c3o2)c1 [Example B016, Cis-3-[2-(8-chloro-4-oxo-chromen-2-yl)-4-methyl-phenoxy]cyclobutanecarboxylic acid] | 6.15 mL/min/kg | 3.1 µM
CCc1ccc(-c2cc(=O)c3cccc(Cl)c3o2)c(O[C@H]2C[C@H](C(=O)O)C2)c1 [Example B019-B, Trans-3-[2-(8-chloro-4-oxo-chromen-2-yl)-5-ethyl-phenoxy]cyclobutanecarboxylic acid] | 8.92 mL/min/kg | 3.63 µM
CC(C)c1ccc(-c2cc(=O)c3cccc(Cl)c3o2)c(O[C@H]2C[C@H](C(=O)O)C2)c1 [Example B020-B, Trans-3-[2-(8-chloro-4-oxo-chromen-2-yl)-5-isopropyl-phenoxy]cyclobutanecarboxylic acid] | 8.46 mL/min/kg | 9.44 µM
COc1ccc(O[C@H]2C[C@H](C(=O)O)C2)c(-c2cc(=O)c3cccc(Cl)c3o2)c1 [Example B021, Trans-3-[2-(8-chloro-4-oxo-chromen-2-yl)-4-methoxy-phenoxy]cyclobutanecarboxylic acid] | 6.15 mL/min/kg | 3.06 µM
O=c1cc(-c2ccccc2O[C@H]2C[C@H](C(=O)O)C2)oc2c(Br)cccc12 [Example B022-B, Trans-3-[2-(8-bromo-4-oxo-chromen-2-yl)phenoxy]cyclobutanecarboxylic acid] | 6.15 mL/min/kg | 0.141 µM
O=c1cc(-c2cc3c(cc2O[C@H]2C[C@H](C(=O)O)C2)CCO3)oc2c(Cl)cccc12 [Example B023, Trans-3-[[6-(8-chloro-4-oxo-chromen-2-yl)-2,3-dihydrobenzofuran-5-yl]oxy]cyclobutanecarboxylic acid] | 6.15 mL/min/kg | 3.39 µM
COc1ccc(OC[C@H]2C[C@H](C(=O)O)C2)c(-c2cc(=O)c3cccc(Cl)c3o2)c1 [Example B027-B] | 6.15 mL/min/kg | 11 µM
O=c1cc(-c2ncc(Br)cc2O[C@H]2C[C@H](C(=O)O)C2)oc2c(Cl)cccc12 [Example B029, Trans-3-[[5-bromo-2-(8-chloro-4-oxo-chromen-2-yl)-3-pyridyl]oxy]cyclobutanecarboxylic acid] | 6.15 mL/min/kg | 14.1 µM
O=c1cc(-c2ccc(C(F)(F)F)cc2O[C@H]2C[C@@H](C(=O)O)C2)oc2c(Cl)ccc(O)c12 [Example B038-A, Cis-3-[2-(8-chloro-5-hydroxy-4-oxo-chromen-2-yl)-5-(trifluoromethyl)phenoxy]cyclobutanecarboxylic acid] | 6.84 mL/min/kg | 1.05 µM
O=c1cc(-c2ccc(C(F)(F)F)cc2O[C@H]2C[C@H](C(=O)O)C2)oc2c(Cl)ccc(O)c12 [Example B038-B, Trans-3-[2-(8-chloro-5-hydroxy-4-oxo-chromen-2-yl)-5-(trifluoromethyl)phenoxy]cyclobutanecarboxylic acid] | 9.59 mL/min/kg | 0.312 µM
CCOc1ccc(-c2cc(=O)c3c(O)ccc(Cl)c3o2)c(O[C@H]2C[C@H](C(=O)O)C2)c1 [Example B039-B, Trans-3-[2-(8-chloro-5-hydroxy-4-oxo-chromen-2-yl)-5-ethoxy-phenoxy]cyclobutanecarboxylic acid] | 6.15 mL/min/kg | 11.5 µM
Cc1cc(-c2cc(=O)c3c(O)ccc(Cl)c3o2)c(O[C@H]2C[C@H](C(=O)O)C2)cc1Br [Example B040-B, trans-3-[5-bromo-2-(8-chloro-5-hydroxy-4-oxo-chromen-2-yl)-4-methyl-phenoxy]cyclobutanecarboxylic acid] | 6.29 mL/min/kg | 2.93 µM
O=C(O)CCCOc1cc(C(F)(F)F)ccc1-c1cc(=O)c2c(O)ccc(Cl)c2o1 [Example B041, 4-[2-(8-chloro-5-hydroxy-4-oxo-chromen-2-yl)-5-(trifluoromethyl)phenoxy]butanoic acid] | 6.15 mL/min/kg | 0.289 µM
COc1cc(OC2CC(C(=O)O)C2)c(-c2cc(=O)c3c(O)ccc(Cl)c3o2)cc1OC (centres unmarked) [Example B042, 3-[2-(8-chloro-5-hydroxy-4-oxo-chromen-2-yl)-4,5-dimethoxy-phenoxy]cyclobutanecarboxylic acid] | 6.15 mL/min/kg | 0.865 µM
O=c1cc(-c2ccc(C(F)(F)F)cc2O[C@H]2C[C@@H](C(=O)NS(=O)(=O)C3CC3)C2)oc2c(Cl)cccc12 [Example B043-A, cis-3-[2-(8-chloro-4-oxo-chromen-2-yl)-5-(trifluoromethyl)phenoxy]-N-cyclopropylsulfonyl-cyclobutanecarboxamide] | 6.15 mL/min/kg | 1.4 µM
CS(=O)(=O)NC(=O)[C@H]1C[C@@H](Oc2cc(Br)ccc2-c2cc(=O)c3cccc(Cl)c3o2)C1 [Example B044-A, cis-3-[5-bromo-2-(8-chloro-4-oxo-chromen-2-yl)phenoxy]-N-methylsulfonyl-cyclobutanecarboxamide] | 6.15 mL/min/kg | 4.62 µM
CS(=O)(=O)NC(=O)[C@H]1C[C@H](Oc2cc(Br)ccc2-c2cc(=O)c3cccc(Cl)c3o2)C1 [Example B044-B, trans-3-[5-bromo-2-(8-chloro-4-oxo-chromen-2-yl)phenoxy]-N-methylsulfonyl-cyclobutanecarboxamide] | 6.15 mL/min/kg | 3.72 µM
CS(=O)(=O)NC(=O)[C@H]1C[C@H](Oc2cc(OC(F)(F)F)ccc2-c2cc(=O)c3cccc(Cl)c3o2)C1 [Example B047-B, Trans-3-[2-(8-chloro-4-oxo-chromen-2-yl)-5-(trifluoromethoxy)phenoxy]-N-methylsulfonyl-cyclobutanecarboxamide] | 6.15 mL/min/kg | 3.76 µM
CS(=O)(=O)NC(=O)[C@H]1C[C@@H](Oc2cc(C(F)(F)F)ccc2-c2cc(=O)c3cccc(Cl)c3o2)C1 [Example B048-A, Cis-3-[2-(8-chloro-4-oxo-chromen-2-yl)-5-(trifluoromethyl)phenoxy]-N-methylsulfonyl-cyclobutanecarboxamide] | 6.15 mL/min/kg | 0.632 µM
CS(=O)(=O)NC(=O)[C@H]1C[C@H](Oc2cc(C(F)(F)F)ccc2-c2cc(=O)c3cccc(Cl)c3o2)C1 [Example B048-B, Trans-3-[2-(8-chloro-4-oxo-chromen-2-yl)-5-(trifluoromethyl)phenoxy]-N-methylsulfonyl-cyclobutanecarboxamide] | 6.15 mL/min/kg | 3.08 µM
